This is an account of results in US10617654B2, “Use of fenoterol and fenoterol analogues in the treatment of glioblastomas and astrocytomas” (priority 2010, dated 2020).

Several values for one entry are separate records, joined by “and”; a condition that tells them apart may be missing. Identical values can stand only once. Like-named read-outs stand apart in the source and are kept apart here.

The subject of data set [1] is 1321N1 cells. In words: Inhibition of mitogenesis, [3H]-thymidine incorporation in 1321N1 cells. The format is cell-based, human.
Another data set relates to rat cardiomyocyte. As to the kind of experiment: Rat cardiomyocyte contractility model. It is filed as cell-based.
The target in data set [2] is T1, β2-AR (Homo sapiens (Human), UniProt P07550). It is filed as cell-based. The note with it: 1321N1 cells, basal below 0.5 nmol/mg protein.
Experimental: HEK-β2-AR, 1321N1 or U87MG cells were plated in 96-well plates. When the cells reached confluence, the medium was removed and each well rinsed with 0.1 mL of Krebs-HEPES buffer (130 mM NaCl, 4.8 mM KCl, 1.2 mM KH2PO4, 1.3 mM CaCl2, 1.2 mM MgSO4, 25 mM HEPES, and 10 mM glucose, pH 7.3). The plates were preincubated for 10 minutes at room temperature with buffer alone; then test compound diluted in buffer was added to the wells for quadruplicate determinations. The plates were incubated for an additional 10 minutes with the test compound. After incubation, the medium was removed and 0.1 mL of 0.5 M formic acid was added. After a minimum of 1 hour, the supernatant was removed and lyophilized. cAMP was quantitated using the protein kinase binding assay of Gilman. The amount of protein per well was determined using the BCA protein determination kit (Thermo Scientific Pierce, Rockford, Ill.) and was used to calculate the amount of cAMP/mg/well.
For data set [3] the following is noted: for Individual plasma concentration: individual rat; for A (zero time intercept, alpha phase) / AUC / B (zero time intercept, beta phase) / Cl / T1/2 (K10) / Vss: 5 mg/kg intravenous, two-compartment open model. On the procedure: Dose calculations (mg/kg) were based on the individual body weight measured on the day of treatment. Study duration for pharmacokinetic studies was 6 hours. […] Urine was collected for 0-6 hours and 6 to 24 hours from 3 rats in each treatment group.
In the two-compartment model, the drug distributes into two compartments, the central compartment and the tissue, or peripheral compartment. The central compartment represents the blood, extracellular fluid, and highly perfused tissues. The drug distributes rapidly and uniformly in the central compartment. A second compartment, known as the tissue or peripheral compartment, contains tissues in which the drug equilibrates more slowly. Drug transfer between the two compartments is assumed to take place by first-order processes.
The following abbreviations are utilized in Table 4 below: alpha—macro rate constant associated with the distribution phase; beta—macro rate constant associated with the elimination phase; A, B—zero time intercept associated with the alpha phase and beta phase, respectively; AUC—area under the curve; T1/2 (K10)—half-life associated with the rate constant K10; K10—elimination rate—rate at which the drug leaves the system from the central compartment; K12—rate at which drug enters tissue compartment from the central compartment; K21—rate at which drug enters central compartment from tissue compartment; V1—volume of distribution of the central compartment; V2—volume of distribution of the tissue compartment; Vss—volume of distribution at steady state; and Cl—clearance.

Data set [4] addresses T1, β2-AR. The note with it: previously reported; cited from earlier work.
In data set [5] the test system is p27, phospho-Akt, cyclin D1, cyclin A, ERK1/2 in 1321N1 cells. In words: Western blot analysis of G1 arrest proteins in 1321N1 cells. It is filed as cell-based, human. The source says:
The ECL Plus Western Blotting Detection System of Amersham Biosciences (Piscataway, N.J.) and the procedure recommended by the manufacturer were used for the detection of antigens. Protein bands were quantified by analyzing the images obtained using an Alphaimager™ S-3400 (Alpha Innotech Corp., San Leandro, Calif.).

In data set [6] the test system is 1321N1 cells. In words: Cell cycle distribution by flow cytometry in 1321N1 cells. It is filed as cell-based, human. The source says: Untreated cells were used as controls.
The nature of data set [7]: Brain and plasma analysis of [3H]-(R,R)-methoxyfenoterol after IV administration. The format is in vivo, male Sprague-Dawley rats. The note with it: 5 mg/kg IV; for Brain, Mean / Percent of Dose in Brain, Mean / Plasma, Mean: three rats; for Brain, Individual / Percent of Dose in Brain, Individual / Plasma, Individual: individual rat. On the procedure:
An overview of the research study design for evaluating the brain-to-plasma distribution of [^3H]
(specific activity 57 Ci/mmol); vehicle was sterile saline, 0.9% sodium chloride, USP. Dose formulations were prepared on the day of the study. The amount of radioactivity in the dose formulation was determined by liquid scintillation. The study lasted for an hour and radioactivity levels in plasma and brain tissue were evaluated at the conclusion of the study. Approximately 5 mls of whole blood was collected. Blood samples were collected via cardiac puncture, transferred into a tube containing K3EDTA as the anticoagulant and kept on wet ice until processed to plasma. To generate plasma, samples were centrifuged within 15 minutes of collection at 2,500 RPM for 15 minutes at room temperature. Plasma was divided equally into three labeled cryovials and stored on ample dry ice until transferred to a freezer set at ≤−20° C. for storage until analysis. Duplicate aliquots were weighed and then combined with scintillation cocktail. The [^3H] radioactivity was determined on a liquid scintillation counter. Brain samples were snap frozen in liquid nitrogen and stored at ≤−70° C. until analysis. Whole brain tissue was homogenized and the weight of the homogenate was determined. Duplicate aliquots from the homogenate were weighed, solubilized and then combined with scintillation cocktail. The [^3H] radioactivity was determined on a liquid scintillation counter.

The mark [8] stands for this setting: Homo sapiens, 1321-N1, read-out: Mitogenesis Inhibition IC50.
The mark [9] stands for this setting: 5 min, listed as [^3H]—(R,R)-methoxyfenoterol.
The mark [10] stands for this setting: 60 min, listed as [^3H]—(R,R)-methoxyfenoterol.

T1 sequence (P07550 whole entry): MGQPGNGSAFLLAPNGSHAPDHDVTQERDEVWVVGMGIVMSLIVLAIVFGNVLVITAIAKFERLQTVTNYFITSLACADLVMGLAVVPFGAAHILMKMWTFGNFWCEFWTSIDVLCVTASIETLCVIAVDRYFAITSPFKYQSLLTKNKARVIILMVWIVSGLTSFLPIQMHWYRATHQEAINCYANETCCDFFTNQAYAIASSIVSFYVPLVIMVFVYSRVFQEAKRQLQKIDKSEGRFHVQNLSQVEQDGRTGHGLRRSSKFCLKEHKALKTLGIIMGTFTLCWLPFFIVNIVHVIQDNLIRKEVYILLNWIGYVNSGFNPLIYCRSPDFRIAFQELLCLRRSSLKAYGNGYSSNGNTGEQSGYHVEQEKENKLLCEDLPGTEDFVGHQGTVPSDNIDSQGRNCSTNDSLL

As to `COc1ccc(C[C@@H](NC[C@H](O)c2cc(O)cc(O)c2)C(C)C)cc1` [(R,R)-4-methoxy-isopropylfenoterol], in the data set on 1321N1 cells [1] ([3H]-thymidine incorporation, 1321N1 cells, mean ± SD, n = 4, read-out: Mitogenesis Inhibition IC50), the IC50 came out at 946 nM. Besides, the EC50 with rat cardiomyocyte is over 10000 nM.

For `C=C[C@@]1(C)CC(=O)[C@]2(O)[C@@]3(C)[C@@H](O)CCC(C)(C)[C@@H]3[C@H](O)[C@H](OC(C)=O)[C@@]2(C)O1` [forskolin], on β2-AR [2], the “intracellular concentration of cAMP after treatment” value was about 4 nmol/mg protein.

Turning to `C[C@@H](Cc1cccc2ccccc12)NC[C@H](O)c1cc(O)cc(O)c1.O=C(O)/C=C/C(=O)O` [(R,S)-5, (R,S)-(−)-5-{1-hydroxy-2-[1-methyl-2-(1-naphthyl)ethylamino]ethyl}-1,3-benzenediol fumarate], the Individual plasma concentration is 2.52 µg/mL and 2.10 µg/mL in data set [3] (5 mg/kg IV, 5 min, listed as (R,S)-naphthylfenoterol, fumarate); 0.11 ug/ml (3×) and 0.13 ug/ml (2×) in data set [3] (5 mg/kg IV, 240 min, listed as (R,S)-naphthylfenoterol, fumarate); 0.10 ug/ml (2×) and 0.11 ug/ml (2×) and 0.12 ug/ml in data set [3] (5 mg/kg IV, 300 min, listed as (R,S)-naphthylfenoterol, fumarate). In data set [3] (rats, 5 mg/kg IV), the “systemic exposure (AUC) compared to (R,R)-fenoterol” value is on record as “significantly higher”. Besides, the “Plasma concentration, Average” value in data set [3] (rats, 5 mg/kg IV, 5 min) stood at 2110 ng/mL; in data set [3] (rats, 5 mg/kg IV, 15 min), 680 ng/mL; in data set [3] (rats, 5 mg/kg IV, 30 min) it was 430 ng/mL; in data set [3] (rats, 5 mg/kg IV, 60 min) it was 340 ng/mL; in data set [3] (rats, 5 mg/kg IV, 120 min), 240 ng/mL; in data set [3] (rats, 5 mg/kg IV, 240 min) it was 120 ng/mL. The “Plasma concentration, Average” value in data set [3] (rats, 5 mg/kg IV, 300 min) was 110 ng/mL; in data set [3] (rats, 5 mg/kg IV, 360 min), 90 ng/mL. The “A (zero time intercept, alpha phase)” value in data set [3] (rats) was 4.0365 µg/mL. In addition, the AUC in data set [3] (rats) was determined as 116.88 µg·min/mL. For the same compound, the “B (zero time intercept, beta phase)” value in data set [3] (rats) is 0.4372 µg/mL. The Cl in data set [3] (rats) was 12.66 mL/min. Moreover, the “T1/2 (K10)” value in data set [3] (rats) is 18.11 min. In data set [3] (rats), this compound returned a Vss of 2203.75 mL.

For the compound `CC(C)NCC(O)c1ccc(O)c2[nH]c(=O)ccc12` (centres unmarked) [Compound 50], on β2-AR [4], the Ki was 170 nM and the “Ki β1/Ki β2” value was 1.7.

Take `Cc1ccc(OCC(O)C(C)NC(C)C)c2c1CCC2` (centres unmarked) [ICI 118-551, reference compound]: the pA2 in the data set with 1321N1 cells [1] (competitive inhibition of inhibitory effect of (R,R)-fenoterol, 1321N1 cells) is recorded as 8.9. In addition, the “slope (pA2 analysis)” value with 1321N1 cells [1] (inhibition of effect of (R,R)-fenoterol, 1321N1 cells) is −1.3±0.3.

Turning to `CC[C@H](Cc1ccc(O)cc1)NC[C@H](O)c1cc(O)cc(O)c1` [(R,R)-ethylfenoterol, (R,R)-(−)-ethylfenoterol], the IC50 in the data set on 1321N1 cells [1] (setting [8]) was 1.44 nM. Also, the EC50 with rat cardiomyocyte was determined as 8550 nM.

Regarding `C[C@@H](Cc1ccc(O)cc1)NC[C@@H](O)c1cc(O)cc(O)c1` [(S,S)-1, (S,S)-(+)-Fenoterol], the EC50 in the data set with rat cardiomyocyte came to 55000 nM.

`C[C@H](Cc1ccc(O)cc1)NC[C@H](O)c1cc(O)cc(O)c1` [(R,R)-1, (R,R)-(−)-Fenoterol]: the Individual plasma concentration in data set [3] (5 mg/kg IV, 15 min) is 0.36 µg/mL; in data set [3] (5 mg/kg IV, 30 min) it was 0.17 µg/mL and 0.50 µg/mL; in data set [3] (5 mg/kg IV, 60 min) it was 0.05 µg/mL; in data set [3] (5 mg/kg IV, 120 min), 0.03 µg/mL and 0.01 µg/mL; in data set [3] (5 mg/kg IV, 300 min), 0.005 µg/mL; in data set [3] (5 mg/kg IV, 360 min), 0.08 µg/mL and 0.03 µg/mL. Further, the “Plasma concentration, Average” value is 360 ng/mL in data set [3] (rats, 5 mg/kg IV, 15 min); 340 ng/mL in data set [3] (rats, 5 mg/kg IV, 30 min); 50 ng/mL in data set [3] (rats, 5 mg/kg IV, 60 min); 20 ng/mL in data set [3] (rats, 5 mg/kg IV, 120 min); 10 ng/mL in data set [3] (rats, 5 mg/kg IV, 240 min); 5 ng/mL in data set [3] (rats, 5 mg/kg IV, 300 min). Besides, the “Plasma concentration, Average” value in data set [3] (rats, 5 mg/kg IV, 360 min) was 60 ng/mL. Further, the “A (zero time intercept, alpha phase)” value in data set [3] (rats) was found to be 1.6300 µg/mL. Moreover, the AUC in data set [3] (rats) is 29.6861 µg·min/mL. The “B (zero time intercept, beta phase)” value in data set [3] (rats) was determined as 0.0577 µg/mL. For the same compound, in data set [3] (rats), the Cl was 51.54 mL/min. For the same compound, the “T1/2 (K10)” value in data set [3] (rats) was 12.19 min. The compound further had a Vss in data set [3] (rats) of 1911.70 mL. The “phosphorylation of ERK1/2” value in data set [5] is on record as “only a modest effect”. Besides, in data set [5], the “protein expression of cyclin A” value is reported as “down-regulated”. Further, the “protein expression of cyclin D1” value in data set [5] was “down-regulated”. Also, the “phosphorylation of Akt at Ser-473” value in data set [5] (dose dependent, nanomolar concentrations) was “inhibited phosphorylation”. Besides, in data set [5] (nanomolar concentrations), the “protein levels of cyclin-dependent kinase inhibitor p27” value is “significantly increased”. Besides, in the data set with 1321N1 cells [6], the “lowest dose arresting the cell cycle” value amounted to 0.1 nM.

On to `NCC(O)c1ccc(O)c2[nH]c(=O)ccc12` (centres unmarked) [Compound 51], for which, at β2-AR [4], the Ki was 6300 nM and the “Ki β1/Ki β2” value is on record as 1.3.

For the compound `CC[C@@H](Cc1ccc(O)cc1)NC[C@H](O)c1cc(O)cc(O)c1` [(R,S)-ethylfenoterol, (R,S)-(−)-ethylfenoterol], the IC50 with 1321N1 cells [1] (setting [8]) was 17.9 ± 4.56 nM.

Regarding `COc1ccc(C[C@@H](C)NC[C@H](O)c2cc(O)cc(O)c2)cc1.Cl` [[^3H]-(R,R)-methoxyfenoterol], the “Brain, Mean” value was determined as 0.92 μg-equiv/g in data set [7] (5 min); 0.92±0.10 μg-equiv/g in data set [7] (setting [9]); 0.80 μg-equiv/g in data set [7] (15 min); 0.72 μg-equiv/g in data set [7] (30 min); 0.70 μg-equiv/g in data set [7] (60 min); 0.70±0.37 μg-equiv/g in data set [7] (setting [10]). Moreover, the “Percent of Dose in Brain, Mean” value in data set [7] (5 min) is 0.14%; in data set [7] (15 min) it was 0.12%; in data set [7] (30 min), 0.11%; in data set [7] (60 min), 0.11%. The “Plasma, Mean” value turned out to be 3.25 μg-equiv/ml in data set [7] (5 min); 3.25±0.15 μg-equiv/ml in data set [7] (setting [9]); 1.79 μg-equiv/ml in data set [7] (15 min); 1.53 μg-equiv/ml in data set [7] (30 min); 1.24 μg-equiv/ml in data set [7] (60 min); 1.24±0.43 μg-equiv/ml in data set [7] (setting [10]). In addition, the “percent dose found in the brain, any given animal” value in data set [7] (over 60 minutes) was “no more than 0.17%”. For the same compound, the “decrease of plasma levels” value in data set [7] (from 5 minutes to 60 minutes) was 62%. Also, the “Brain, Individual” value in data set [7] (5 min) is 1.00 μg-equiv/g and 0.80 μg-equiv/g and 0.95 μg-equiv/g; in data set [7] (15 min), 0.99 μg-equiv/g and 0.36 μg-equiv/g and 1.06 μg-equiv/g; in data set [7] (30 min), 0.22 μg-equiv/g and 1.00 μg-equiv/g and 0.95 μg-equiv/g; in data set [7] (60 min), 0.44 μg-equiv/g and 0.53 μg-equiv/g and 1.12 μg-equiv/g. The “Percent of Dose in Brain, Individual” value in data set [7] (5 min) is 0.15% (2×) and 0.12%; in data set [7] (15 min), 0.15% and 0.06% and 0.16%; in data set [7] (30 min) it was 0.03% and 0.15% (2×); in data set [7] (60 min), 0.06% and 0.09% and 0.17%. Also, the “Plasma, Individual” value was 3.30 μg-equiv/ml and 3.08 μg-equiv/ml and 3.37 μg-equiv/ml in data set [7] (5 min); 2.19 μg-equiv/ml and 0.89 μg-equiv/ml and 2.29 μg-equiv/ml in data set [7] (15 min); 0.63 μg-equiv/ml and 1.97 μg-equiv/ml and 2.00 μg-equiv/ml in data set [7] (30 min); 0.97 μg-equiv/ml and 1.01 μg-equiv/ml and 1.73 μg-equiv/ml in data set [7] (60 min).
